ChEMBL document CHEMBL5465560, “Selectivity Literature for EUbOPEN Chemogenomic Library” (2024)

What was measured:
[1] = target: Histone-lysine N-methyltransferase KMT5B (Homo sapiens) (UniProt Q4FZB7); conditions: at 10 µM
[2] = target: T1, Serine/threonine-protein kinase 17B (Homo sapiens) (UniProt O94768); test: Selectivity interaction (KinomeScan (DiscoverX)) EUB0000229b STK17B; conditions: at 10 µM
T1 sequence (whole entry): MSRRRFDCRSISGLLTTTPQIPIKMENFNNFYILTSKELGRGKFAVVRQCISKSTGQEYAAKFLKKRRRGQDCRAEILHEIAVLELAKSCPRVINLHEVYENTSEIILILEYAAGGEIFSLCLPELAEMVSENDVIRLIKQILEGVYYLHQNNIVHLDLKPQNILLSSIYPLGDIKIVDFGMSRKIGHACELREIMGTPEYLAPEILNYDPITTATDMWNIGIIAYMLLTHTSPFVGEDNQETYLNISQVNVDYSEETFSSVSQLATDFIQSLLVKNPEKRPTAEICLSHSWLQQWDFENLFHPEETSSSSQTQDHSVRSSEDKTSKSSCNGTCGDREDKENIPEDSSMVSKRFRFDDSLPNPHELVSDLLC

[3] = target: Mitogen-activated protein kinase kinase kinase 10 (Homo sapiens) (UniProt Q02779); test: Selectivity interaction (KinomeScan (DiscoverX)) EUB0000595a MAP3K10; conditions: at 10 µM
Mitogen-activated protein kinase kinase kinase 10 (Homo sapiens), sequence (Q02779 whole entry, looked up): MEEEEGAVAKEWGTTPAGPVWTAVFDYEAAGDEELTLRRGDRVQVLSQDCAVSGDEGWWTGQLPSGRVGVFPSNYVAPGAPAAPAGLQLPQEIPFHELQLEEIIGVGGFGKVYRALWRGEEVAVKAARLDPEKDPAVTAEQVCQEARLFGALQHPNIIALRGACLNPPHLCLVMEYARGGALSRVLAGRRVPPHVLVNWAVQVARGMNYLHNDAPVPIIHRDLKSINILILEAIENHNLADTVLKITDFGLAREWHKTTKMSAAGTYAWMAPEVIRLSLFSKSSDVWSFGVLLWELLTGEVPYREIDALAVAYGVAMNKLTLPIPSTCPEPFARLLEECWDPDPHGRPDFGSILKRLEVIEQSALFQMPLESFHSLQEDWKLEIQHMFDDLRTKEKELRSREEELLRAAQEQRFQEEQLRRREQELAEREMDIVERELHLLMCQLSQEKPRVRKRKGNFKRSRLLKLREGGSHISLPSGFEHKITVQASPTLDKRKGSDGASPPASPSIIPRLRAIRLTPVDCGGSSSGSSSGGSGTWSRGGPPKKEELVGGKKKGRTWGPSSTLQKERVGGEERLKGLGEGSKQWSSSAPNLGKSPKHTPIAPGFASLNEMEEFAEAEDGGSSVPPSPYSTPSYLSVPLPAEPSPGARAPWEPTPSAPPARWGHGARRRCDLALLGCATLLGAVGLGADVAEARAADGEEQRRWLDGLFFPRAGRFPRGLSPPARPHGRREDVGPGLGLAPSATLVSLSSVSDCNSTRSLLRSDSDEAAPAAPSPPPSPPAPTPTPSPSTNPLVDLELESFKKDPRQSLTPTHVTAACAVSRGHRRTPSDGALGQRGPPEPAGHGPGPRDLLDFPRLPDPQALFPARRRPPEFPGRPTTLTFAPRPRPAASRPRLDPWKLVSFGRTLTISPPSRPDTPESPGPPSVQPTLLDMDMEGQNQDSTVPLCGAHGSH

[4] = target: Calcium/calmodulin-dependent protein kinase type 1 (Homo sapiens) (UniProt Q14012); test: Selectivity interaction (KinomeScan (DiscoverX)) EUB0000595a CAMK1; conditions: at 10 µM
Calcium/calmodulin-dependent protein kinase type 1 (Homo sapiens), sequence (Q14012 whole entry, looked up): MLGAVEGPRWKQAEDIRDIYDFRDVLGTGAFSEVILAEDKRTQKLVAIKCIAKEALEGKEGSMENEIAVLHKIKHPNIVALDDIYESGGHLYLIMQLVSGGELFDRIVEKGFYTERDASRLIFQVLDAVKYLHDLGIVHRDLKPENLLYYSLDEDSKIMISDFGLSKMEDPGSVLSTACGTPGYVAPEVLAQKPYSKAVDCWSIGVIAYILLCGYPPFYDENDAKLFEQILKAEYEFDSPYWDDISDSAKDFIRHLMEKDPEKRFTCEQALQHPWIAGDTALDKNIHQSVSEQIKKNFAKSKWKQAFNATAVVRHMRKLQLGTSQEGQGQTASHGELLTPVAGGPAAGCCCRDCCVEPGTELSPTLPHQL

[5] = target: T2, Ephrin type-B receptor 2 (Homo sapiens) (UniProt P29323); test: Selectivity interaction (Ambit KINOMEscan and KiNATiv profiling in Jurkat cells) EUB0000090b EPHB2; type: cell-based; conditions: at 1 µM
T2 sequence (whole entry): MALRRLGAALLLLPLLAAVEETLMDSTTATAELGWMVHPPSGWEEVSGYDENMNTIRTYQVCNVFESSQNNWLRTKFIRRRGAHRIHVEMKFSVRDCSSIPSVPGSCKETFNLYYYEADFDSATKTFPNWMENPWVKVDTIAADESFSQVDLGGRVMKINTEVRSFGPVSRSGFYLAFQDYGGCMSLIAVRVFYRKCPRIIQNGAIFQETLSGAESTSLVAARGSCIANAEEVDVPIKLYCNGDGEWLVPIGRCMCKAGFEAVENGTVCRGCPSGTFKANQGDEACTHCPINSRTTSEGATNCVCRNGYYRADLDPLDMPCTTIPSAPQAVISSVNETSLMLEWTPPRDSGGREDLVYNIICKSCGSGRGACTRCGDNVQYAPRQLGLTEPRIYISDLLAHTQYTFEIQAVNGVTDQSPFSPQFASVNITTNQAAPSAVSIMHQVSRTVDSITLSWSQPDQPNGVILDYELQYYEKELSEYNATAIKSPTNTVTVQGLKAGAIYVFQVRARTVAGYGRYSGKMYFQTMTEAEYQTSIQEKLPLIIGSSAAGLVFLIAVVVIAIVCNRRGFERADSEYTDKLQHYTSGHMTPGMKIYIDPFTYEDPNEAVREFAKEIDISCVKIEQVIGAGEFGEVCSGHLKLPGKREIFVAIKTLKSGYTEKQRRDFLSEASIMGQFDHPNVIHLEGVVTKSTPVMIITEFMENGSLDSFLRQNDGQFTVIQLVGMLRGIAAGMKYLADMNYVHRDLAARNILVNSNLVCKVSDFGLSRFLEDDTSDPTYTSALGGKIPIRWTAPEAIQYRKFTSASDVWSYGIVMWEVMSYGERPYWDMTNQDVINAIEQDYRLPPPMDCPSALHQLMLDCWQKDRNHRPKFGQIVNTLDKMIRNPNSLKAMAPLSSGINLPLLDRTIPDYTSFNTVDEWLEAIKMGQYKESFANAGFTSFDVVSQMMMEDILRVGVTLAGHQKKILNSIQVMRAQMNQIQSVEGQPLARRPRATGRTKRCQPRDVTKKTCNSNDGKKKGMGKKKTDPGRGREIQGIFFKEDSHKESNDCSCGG

[6] = target: T3, Bone morphogenetic protein receptor type-1B (Homo sapiens, UniProt O00238); test: Selectivity interaction (KinomeScan (DiscoverX)) EUB0001619a BMPR1B; conditions: at 1 µM
T3 sequence (O00238 whole entry): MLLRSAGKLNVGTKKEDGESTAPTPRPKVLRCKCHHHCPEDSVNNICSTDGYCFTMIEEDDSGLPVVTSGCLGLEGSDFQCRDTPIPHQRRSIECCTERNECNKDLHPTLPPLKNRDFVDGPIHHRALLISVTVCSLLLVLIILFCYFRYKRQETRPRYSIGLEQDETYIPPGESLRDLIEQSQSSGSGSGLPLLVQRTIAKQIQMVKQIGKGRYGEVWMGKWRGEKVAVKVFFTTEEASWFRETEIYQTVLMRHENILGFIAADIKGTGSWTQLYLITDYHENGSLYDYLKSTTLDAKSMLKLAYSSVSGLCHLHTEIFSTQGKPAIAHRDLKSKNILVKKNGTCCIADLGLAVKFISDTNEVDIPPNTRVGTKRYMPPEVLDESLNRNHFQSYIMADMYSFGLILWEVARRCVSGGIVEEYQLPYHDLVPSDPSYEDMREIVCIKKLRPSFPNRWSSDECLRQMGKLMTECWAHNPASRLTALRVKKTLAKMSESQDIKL

[7] = target: T4, Mitogen-activated protein kinase kinase kinase 7 (Homo sapiens) (UniProt O43318); test: Selectivity interaction (Upstate Kinase Profiler service (Millipore)) EUB0000056c MAP3K7; conditions: at 1 µM
T4 sequence (whole entry): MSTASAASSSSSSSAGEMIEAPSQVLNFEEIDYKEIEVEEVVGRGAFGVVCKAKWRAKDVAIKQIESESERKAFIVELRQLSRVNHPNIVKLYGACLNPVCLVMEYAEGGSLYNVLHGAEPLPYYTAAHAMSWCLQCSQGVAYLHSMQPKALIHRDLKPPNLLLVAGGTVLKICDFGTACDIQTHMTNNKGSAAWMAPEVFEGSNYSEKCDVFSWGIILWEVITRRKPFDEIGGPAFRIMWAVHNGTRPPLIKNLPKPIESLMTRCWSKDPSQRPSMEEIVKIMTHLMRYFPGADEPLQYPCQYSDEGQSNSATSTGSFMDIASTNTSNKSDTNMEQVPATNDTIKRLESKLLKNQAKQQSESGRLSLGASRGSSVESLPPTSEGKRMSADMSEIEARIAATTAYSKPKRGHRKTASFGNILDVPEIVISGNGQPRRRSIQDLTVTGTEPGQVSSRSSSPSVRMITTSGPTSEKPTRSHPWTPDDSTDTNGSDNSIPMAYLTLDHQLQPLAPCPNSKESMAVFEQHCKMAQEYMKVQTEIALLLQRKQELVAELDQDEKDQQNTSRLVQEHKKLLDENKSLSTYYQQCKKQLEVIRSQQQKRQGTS

[8] = target: T5, Aurora kinase A (Homo sapiens) (UniProt O14965); test: Selectivity interaction (Upstate Kinase Profiler service (Millipore)) EUB0000056c STK6; conditions: at 1 µM
T5 sequence (whole entry): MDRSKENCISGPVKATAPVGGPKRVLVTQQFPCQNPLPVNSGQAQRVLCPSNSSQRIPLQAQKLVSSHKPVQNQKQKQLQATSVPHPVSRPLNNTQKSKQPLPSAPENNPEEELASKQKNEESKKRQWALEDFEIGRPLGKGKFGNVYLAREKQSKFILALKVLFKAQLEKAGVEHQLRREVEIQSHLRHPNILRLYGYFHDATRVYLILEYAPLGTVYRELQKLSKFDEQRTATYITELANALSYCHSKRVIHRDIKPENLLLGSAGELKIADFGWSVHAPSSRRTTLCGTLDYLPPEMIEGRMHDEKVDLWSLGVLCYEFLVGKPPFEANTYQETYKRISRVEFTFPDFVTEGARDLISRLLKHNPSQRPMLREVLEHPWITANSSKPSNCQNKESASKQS

[9] = target: T3, Bone morphogenetic protein receptor type-1B; test: Selectivity interaction (KinomeScan (DiscoverX)) EUB0000655a BMPR1B; conditions: at 10 µM
[10] = target: Receptor-interacting serine/threonine-protein kinase 2 (Homo sapiens, UniProt O43353); test: Selectivity interaction (LanthaScreen Eu Kinase Binding Assay) EUB0001632a RIPK2; conditions: at 10 µM
Receptor-interacting serine/threonine-protein kinase 2, sequence (O43353 whole entry): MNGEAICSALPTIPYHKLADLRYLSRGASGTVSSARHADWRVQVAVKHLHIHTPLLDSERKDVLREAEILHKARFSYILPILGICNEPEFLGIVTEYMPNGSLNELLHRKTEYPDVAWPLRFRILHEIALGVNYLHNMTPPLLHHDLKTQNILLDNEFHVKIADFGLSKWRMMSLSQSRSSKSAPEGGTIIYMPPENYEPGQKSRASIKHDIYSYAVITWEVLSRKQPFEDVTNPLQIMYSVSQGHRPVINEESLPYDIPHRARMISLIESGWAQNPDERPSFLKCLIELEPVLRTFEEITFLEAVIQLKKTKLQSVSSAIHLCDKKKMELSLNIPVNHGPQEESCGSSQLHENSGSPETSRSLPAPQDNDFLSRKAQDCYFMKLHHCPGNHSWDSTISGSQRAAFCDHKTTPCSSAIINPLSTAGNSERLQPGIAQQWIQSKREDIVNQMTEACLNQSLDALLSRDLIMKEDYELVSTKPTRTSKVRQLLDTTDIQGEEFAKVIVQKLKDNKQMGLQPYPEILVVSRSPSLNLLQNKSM

Histone-lysine N-methyltransferase KMT5B (Homo sapiens), sequence (Q4FZB7 whole entry, looked up): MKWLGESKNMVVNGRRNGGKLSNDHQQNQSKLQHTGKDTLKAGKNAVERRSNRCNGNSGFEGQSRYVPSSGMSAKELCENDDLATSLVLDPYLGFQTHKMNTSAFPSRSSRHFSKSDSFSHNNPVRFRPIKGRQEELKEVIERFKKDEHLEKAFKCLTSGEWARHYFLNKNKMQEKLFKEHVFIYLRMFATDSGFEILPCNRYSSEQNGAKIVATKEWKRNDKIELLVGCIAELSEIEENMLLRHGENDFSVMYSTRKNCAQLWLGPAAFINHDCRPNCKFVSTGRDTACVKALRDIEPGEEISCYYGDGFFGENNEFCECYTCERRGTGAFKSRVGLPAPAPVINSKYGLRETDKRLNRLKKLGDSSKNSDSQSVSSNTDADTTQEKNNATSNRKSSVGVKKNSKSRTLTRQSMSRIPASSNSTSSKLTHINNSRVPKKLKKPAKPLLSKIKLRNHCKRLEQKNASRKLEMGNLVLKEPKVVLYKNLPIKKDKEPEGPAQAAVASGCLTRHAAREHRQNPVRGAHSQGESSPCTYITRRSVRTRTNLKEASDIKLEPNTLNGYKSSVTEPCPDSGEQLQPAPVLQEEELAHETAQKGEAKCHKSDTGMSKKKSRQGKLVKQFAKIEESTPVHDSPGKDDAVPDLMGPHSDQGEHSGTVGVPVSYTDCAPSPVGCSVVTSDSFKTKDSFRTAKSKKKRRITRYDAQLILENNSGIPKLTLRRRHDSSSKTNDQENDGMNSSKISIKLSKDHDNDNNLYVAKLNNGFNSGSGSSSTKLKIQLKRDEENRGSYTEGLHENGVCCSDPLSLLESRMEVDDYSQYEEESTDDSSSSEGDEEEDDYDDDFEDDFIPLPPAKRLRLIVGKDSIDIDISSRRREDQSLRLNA

SMILES: CNCCN1CCC(c2cc(CN(C)C(=O)c3cccc(Oc4ccccc4)c3)ccn2)CC1
- % activity [1]: > 90%

SMILES: COc1cc(N(C)c2ccnc3ccc(C(F)(F)F)cc23)cc(OC)c1OC
- % binding [2]: 100%

SMILES: COCC(=O)NC/C=C/c1ccc2ncnc(Nc3ccc(Oc4ccc(C)nc4)c(C)c3)c2c1 [CP-724714]
- % of control [3]: 100%
- % of control [4]: 72%

SMILES: CN(C)C/C=C/C(=O)Nc1ccc(C(=O)N2CCCC(Nc3ncc(Cl)c(-c4c[nH]c5ccccc45)n3)C2)cc1 (stereo not given)
- % of control [5]: 100%

SMILES: N#Cc1cccc(-c2c[nH]c3ncnc(N4CCOCC4)c23)c1
- % of control [6]: 31%

SMILES: Cc1ccc(-c2ccc3c(ccc4sc5c(c43)NC[C@@H](C)NC5=O)n2)cn1
- % of inhibition [7]: 6%
- % of inhibition [8]: 32%

SMILES: CN(C)CCOc1ccc(-c2nc(-c3ccncc3)c(-c3ccc4c(c3)CC/C4=N\O)[nH]2)cc1
- % of control [9]: 26%

SMILES: Cn1cc(-n2cnc3c(NCc4nc5cc(Cl)c(Cl)cc5[nH]4)nc(N4CCOCC4)nc32)cn1
- % of inhibition [10]: -13.3%
